Reference: US12391674B2, “Heterocyclic compounds for the treatment of epilepsy” (OTSUKA PHARMACEUTICAL CO., LTD., priority 2018, dated 2025)

Assays:
ICR mice = experiment: Rotarod test (motor coordination); type: in vivo, mouse; conditions: oral, rotarod 1 hour after administration
Experimental: This test is performed to evaluate the effect of the compound on the motor coordination. In this test example, the example compounds shown in Table 4 below were used as test compounds. Male ICR mice (Japan SLC, Inc., 5-6 weeks, 8 per group) were trained to remain on a fixed speed (15 rpm) rotating rod of rotarod apparatus (Muromachi Kikai Co., Ltd.) for 2 minutes. […] After 1 hour of oral administration, the mice were again placed on the rod accelerated from 4 rpm to 40 rpm over 5 minutes and the latency to fall off the rod was recorded for 200 seconds. The falling latency of the compound administration group was calculated as a relative value relative to the average value of the falling latency in the solvent administration group. Here, a coordination disorder of 25% or less was expressed as “A”, and a coordination disorder of more than 25% and 50% or less was expressed as “B”.

DBA/2 mice = experiment: Audiogenic seizure model; type: in vivo; conditions: Mus musculus, DBA/2 mice, oral, auditory stimulation 1 hour after administration, read-out: Seizure suppression
Method in brief: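 Male and female DBA/2 mice (3 weeks old, 8/group) dosed orally at 30 mg/kg in 5% gum arabic; 1 h later exposed to 12.6 kHz, 100-110 dB tone for 1 min or until tonic seizure. Maximum seizure score (0–4) recorded; suppression rate graded A (≥90%), B (70–<90%), C (50–<70%).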

| SMILES | Motor dysfunction (ICR mice; dose 5 mg/kg) | inhibition in vivo at 5 mg/kg (DBA/2 mice) [%] | Motor dysfunction (ICR mice; dose 30 mg/kg) | inhibition in vivo at 30 mg/kg (DBA/2 mice) [%] | also measured |
| --- | --- | --- | --- | --- | --- |
| FC(F)(F)c1nnc2ccc(-c3cnc(Oc4ccccc4)nc3)cn12 [Example 279] |  |  |  |  | Motor dysfunction (ICR mice; dose 1 mg/kg): A (a coordination disorder of 25% or less); inhibition in vivo at 1 mg/kg (DBA/2 mice): > 90% |
| c1ccc(Oc2ncc(-c3ccc4ccnn4c3)cn2)cc1 [Example 151] | A (a coordination disorder of 25% or less) | > 90 |  |  |  |
| O=C1CCC(c2cnc(Oc3ccccc3)nc2)=NN1 [Example 92, 6-(2-Phenoxypyrimidin-5-Yl)-4,5-Dihydropyridazin-3 (2H)-One] | A (a coordination disorder of 25% or less) | > 90 |  |  |  |
| Fc1ccc(-c2cnc(Oc3ccccc3)nc2)cn1 [Example 33] |  | > 90 | A (a coordination disorder of 25% or less) |  |  |
| Cc1ncccc1-c1cnc(Oc2ccccc2)nc1 [Example 34] |  |  | A (a coordination disorder of 25% or less) | > 90 |  |
| Cc1cnc2ccc(-c3cnc(Oc4ccccc4)nc3)cn12 [Example 190] | A (a coordination disorder of 25% or less) | > 90 |  |  |  |
| Cc1cc(-c2cnc(Oc3ccccc3)nc2)ccn1 [Example 22] | A (a coordination disorder of 25% or less) | > 90 |  |  |  |
| CC1(C)CC(=O)NC(=O)N1c1ccc(Oc2ccccc2)cc1 [Example 337, 6,6-Dimethyl-1-(4-Phenoxyphenyl)Dihydropyrimidine-2,4 (1H,3H)-Dione] |  |  | A (a coordination disorder of 25% or less) | > 90 |  |
| O=c1ccc(-c2cnc(Oc3ccccc3)nc2)n[nH]1 [Example 91, 6-(2-Phenoxypyrimidin-5-Yl)Pyridazin-3 (2H)-One] | A (a coordination disorder of 25% or less) | > 90 |  |  |  |
| c1ccc(Oc2ncc(-c3cnc4ncnn4c3)cn2)cc1 [Example 188] |  |  | A (a coordination disorder of 25% or less) | > 90 |  |
| Cc1cc(Oc2ccccc2)ccc1N1CCC(=O)NC1=O [Example 323] |  |  | B (a coordination disorder of more than 25% and 50% or less) |  | inhibition in vivo at 39 mg/kg (DBA/2 mice; dose 39 mg/kg): 70 to 90% |
| c1ccc(Oc2ncc(-c3ccc4[nH]ccc4c3)cn2)cc1 [Example 262, 5-(2-Phenoxypyrimidin-5-Yl)-1H-Indole] | A (a coordination disorder of 25% or less) | > 90 |  |  |  |
| O=C1CCC(c2cnc(Oc3ccc(F)cc3)nc2)=NN1 [Example 98] |  |  |  |  | Motor dysfunction (ICR mice; dose 3 mg/kg): A (a coordination disorder of 25% or less); inhibition in vivo at 3 mg/kg (DBA/2 mice): > 90% |
| COc1ccc(-c2cnc(Oc3ccccc3F)nc2)nn1 [Example 3] |  | > 90 |  |  | Motor dysfunction (ICR mice; dose 10 mg/kg): A (a coordination disorder of 25% or less) |
| O=C1CCN(c2ccc(Oc3cccc(F)c3)nc2)C(=O)N1 [Example 332] |  |  | A (a coordination disorder of 25% or less) | 70 to 90 |  |
| O=C1CCN(c2ccc(Oc3cccc(OC(F)F)c3)cc2)C(=O)N1 [Example 314, 1-{4-[3-(Difluoromethoxy) Phenoxy]Phenyl}Dihydropyrimidine-2,4 (1H,3H)-Dione] |  |  | A (a coordination disorder of 25% or less) | > 90 |  |
| c1ccc(Oc2ncc(N3CCCCC3)cn2)cc1 [Example 223, 2-Phenoxy-5-(Piperidine-1-Yl)Pyrimidine] |  |  | A (a coordination disorder of 25% or less) | > 90 |  |
| N#Cc1cc(-c2cnc(Oc3ccccc3)nc2)ccn1 [Example 348] |  |  |  |  | Motor dysfunction (ICR mice; dose 1 mg/kg): A (a coordination disorder of 25% or less); inhibition in vivo at 1 mg/kg (DBA/2 mice): > 90% |
| O=C1CCN(c2ccc(Oc3ccccc3F)cc2)C(=O)N1 [Example 309] |  |  | A (a coordination disorder of 25% or less) | > 90 |  |
| COc1ccc(-c2cnc(Oc3cccc(F)c3)nc2)nn1 [Example 4, 3-(2-(3-Fluorophenoxy)Pyrimidin-5-Yl)-6-Methoxypyridazine] | A (a coordination disorder of 25% or less) | > 90 |  |  |  |
| c1ccc(Oc2ncc(-c3ccnnc3)cn2)cc1 [Example 31] | A (a coordination disorder of 25% or less) | > 90 |  |  |  |
| O=C1CCN(c2ccc(Cc3ccccc3)cc2)C(=O)N1 [Example 304] |  |  | A (a coordination disorder of 25% or less) | > 90 |  |

| SMILES | Motor dysfunction (ICR mice; dose 5 mg/kg) | inhibition in vivo at 5 mg/kg (DBA/2 mice) [%] | Motor dysfunction (ICR mice; dose 30 mg/kg) | inhibition in vivo at 30 mg/kg (DBA/2 mice) [%] | also measured |
| --- | --- | --- | --- | --- | --- |
| c1ccc(Oc2ncc(-c3cccnc3)cn2)cc1 [Example 7, 2-Phenoxy-5-(Pyridin-3-Yl)Pyrimidine] | A (a coordination disorder of 25% or less) | > 90 |  |  |  |
| O=c1ccc(-c2cnc(Oc3ccccc3)nc2)c[nH]1 [Example 103] |  |  | A (a coordination disorder of 25% or less) | > 90 |  |
| COc1ccc(-c2cnc(Oc3cccnc3)nc2)nn1 [Example 74] | A (a coordination disorder of 25% or less) | > 90 |  |  |  |
| CCC1CC(=O)NC(=O)N1c1ccc(Oc2ccccc2)cc1 (stereo not shown) [Example 343, 6-Ethyl-1-(4-Phenoxyphenyl)Dihydropyrimidine-2,4 (1H,3H)-Dione] |  |  | A (a coordination disorder of 25% or less) | > 90 |  |
| c1ccc(Oc2ncc(-c3ccc4nncn4n3)cn2)cc1 [Example 289] |  |  |  |  | Motor dysfunction (ICR mice; dose 1 mg/kg): A (a coordination disorder of 25% or less); inhibition in vivo at 1 mg/kg (DBA/2 mice): > 90% |
| c1ccc(Oc2ncc(-c3cccc4cnccc34)cn2)cc1 [Example 248] | A (a coordination disorder of 25% or less) | > 90 |  |  |  |
| c1ccc(Oc2ncc(-c3ccncn3)cn2)cc1 [Example 10] |  |  | A (a coordination disorder of 25% or less) | > 90 |  |
| c1ccc(Oc2ncc(-c3ccn4ccnc4c3)cn2)cc1 [Example 127] | B (a coordination disorder of more than 25% and 50% or less) | > 90 |  |  |  |
| c1ccc(Oc2ncc(-c3ccc4ncccc4n3)cn2)cc1 [Example 143] |  |  | A (a coordination disorder of 25% or less) | > 90 |  |
| O=C1CCc2cc(-c3cnc(Oc4ccccc4)nc3)ccc2N1 [Example 245] |  |  | A (a coordination disorder of 25% or less) | > 90 |  |
| FC(F)(F)c1ccnc(-c2cnc(Oc3ccccc3)nc2)n1 [Example 300] |  |  | A (a coordination disorder of 25% or less) | > 90 |  |
| c1ccc(Oc2ncc(-c3ccn4nccc4n3)cn2)cc1 [Example 134] | B (a coordination disorder of more than 25% and 50% or less) | > 90 |  |  |  |
| Nc1ccc(-c2cnc(Oc3cccnc3)nc2)cn1 [Example 90] | A (a coordination disorder of 25% or less) | 70 to 90 |  |  |  |
| O=c1ccc(-c2cnc(Oc3cccc(C(F)(F)F)c3)nc2)n[nH]1 [Example 99] |  |  |  |  | Motor dysfunction (ICR mice; dose 10 mg/kg): A (a coordination disorder of 25% or less); inhibition in vivo at 10 mg/kg (DBA/2 mice; dose 10 mg/kg): > 90% |
| c1ccc(Oc2ncc(-c3ccc4c(c3)OCO4)cn2)cc1 [Example 236] |  |  | A (a coordination disorder of 25% or less) | > 90 |  |
| Nc1ccc(-c2cnc(Oc3cccc(F)c3)nc2)nn1 [Example 24, 6-(2-(3-Fluorophenoxy)Pyrimidin-5-Yl)Pyridazin-3-Amine] | A (a coordination disorder of 25% or less) | > 90 |  |  |  |
| FC(F)(F)c1ccc(-c2cnc(Oc3ccccc3)nc2)cn1 [Example 27] |  |  | A (a coordination disorder of 25% or less) | > 90 |  |
| O=C1CCN(c2ccc(Oc3ccccc3F)nc2)C(=O)N1 [Example 331] |  |  | A (a coordination disorder of 25% or less) | 70 to 90 |  |
| c1cncc(Oc2ncc(-c3ccc4nccn4c3)cn2)c1 [Example 294] | A (a coordination disorder of 25% or less) | > 90 |  |  |  |
| Cc1ccc(-c2cnc(Oc3ccccc3)nc2)c(N)n1 [Example 64] |  |  |  |  | Motor dysfunction (ICR mice; dose 3 mg/kg): A (a coordination disorder of 25% or less); inhibition in vivo at 3 mg/kg (DBA/2 mice): > 90% |
| [O-][n+]1cccc(-c2cnc(Oc3ccccc3)nc2)c1 [Example 11, 3-(2-Phenoxypyrimidin-5-Yl)Pyridine 1-Oxide] | A (a coordination disorder of 25% or less) | > 90 |  |  |  |
| Cc1c(-c2cnc(Oc3ccccc3)nc2)ccc2nccn12.Cl [Example 198, 5-Methyl-6-(2-Phenoxypyrimidin-5-Yl) Imidazo[1,2-a]Pyridine Hydrochloride] | A (a coordination disorder of 25% or less) | > 90 |  |  |  |
